Where two headings read alike, the source gives them in different places.
Target: T1, human APJ receptor (Homo sapiens, UniProt P35414)
T1 construct: expressed in transfected cells
T1 sequence (P35414 1-380): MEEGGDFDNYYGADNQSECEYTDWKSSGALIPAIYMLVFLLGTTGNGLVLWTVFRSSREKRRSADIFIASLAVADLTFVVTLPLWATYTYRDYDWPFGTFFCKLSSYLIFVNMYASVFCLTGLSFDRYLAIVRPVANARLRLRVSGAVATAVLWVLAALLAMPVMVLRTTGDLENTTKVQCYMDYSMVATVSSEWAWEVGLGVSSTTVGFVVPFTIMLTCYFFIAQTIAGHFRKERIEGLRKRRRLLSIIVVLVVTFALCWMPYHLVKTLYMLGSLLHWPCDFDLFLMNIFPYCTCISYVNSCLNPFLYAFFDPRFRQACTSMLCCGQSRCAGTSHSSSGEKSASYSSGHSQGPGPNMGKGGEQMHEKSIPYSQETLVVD
Assay: Intracellular cAMP accumulation assay (APJ hcAMP, HTRF)
Assay type: cell-based
How it was run: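 Inhibition of 2 μM forskolin-driven cAMP ([…] present) measured by HTRF in 5,000 HEK293 cells/well stably expressing human APJ, 30 min, room temperature. EC50 came from a variable-slope sigmoidal fit; Ymax was relative to (Pyr1)apelin-13 set at 100%.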

[1] = Table 1, HEK293 cells stably expressing human APJ receptor, inhibition of forskolin-mediated cAMP production, read-out: APJ hcAMP EC50
[2] = human APJ, cAMP, potency range class, read-out: APJ cAMP Human EC50
[3] = Table 2, HEK293 cells stably expressing human APJ receptor, read-out: APJ cAMP Human EC50

Row | SMILES | EC50 [1] | EC50 [2] | EC50 (Table 3, HEK293 cells stably expressing human APJ receptor, read-out: APJ cAMP Human EC50) | EC50 [3]
1 | O=C(NC(c1ccccc1)C1CC1)c1ccc(-c2cc(Cl)ccc2-c2nc3ccccc3[nH]2)c(C(=O)O)c1 (single isomer, unassigned) [Example 211, 2′-(1H-1,3-benzodiazol-2-yl)-5′-chloro-4-{[cyclopropyl(phenyl)methyl]carbamoyl}-[1,1′-biphenyl]-2-carboxylic acid] | < 10 nM | < 10 nM | – | –
2 | CCCC(NC(=O)c1ccc(-c2cc(Cl)ccc2-c2nc3ccccc3[nH]2)c(C(=O)O)c1)c1ccc(F)cc1 (single isomer, unassigned) [Example 215, 2′-(1H-1,3-benzodiazol-2-yl)-5′-chloro-4-{[1-(4-fluorophenyl)butyl]carbamoyl}-[1,1′-biphenyl]-2-carboxylic acid] | 101 to 500 nM | 101 to 500 nM | – | –
3 | O=C(NC(c1ccccc1)C1CC1)c1ccc(-c2c(Cl)cccc2-c2nc3ccccc3[nH]2)c(C(=O)O)c1 (single isomer, unassigned) [Example 220] | < 10 nM | < 10 nM | – | –
4 | CCC[C@H](NC(=O)c1ccc(-c2c(Cl)cccc2-c2nc3ccccc3[nH]2)c(C(=O)O)c1)c1ccccc1OC (single isomer, unassigned) [Example 221] | < 10 nM | < 10 nM | – | –
5 | O=C(NC(c1ccc(Cl)cc1)C1CC1)c1ccc(-c2c(Cl)cccc2-c2nc3ccccc3[nH]2)c(C(=O)O)c1 (single isomer, unassigned) [Example 224] | < 10 nM | < 10 nM | – | –
6 | O=C(NC(C1CCCCC1)C1CC1)c1ccc(-c2c(Cl)cccc2-c2nc3ccccc3[nH]2)c(C(=O)O)c1 (single isomer, unassigned) [Example 227] | < 10 nM | < 10 nM | – | –
7 | CCCC(NC(=O)c1ccc(-c2c(Cl)cccc2-c2nc3ccccc3[nH]2)c(C(=O)O)c1)c1ccc(F)cc1 (single isomer, unassigned) [Example 228] | < 10 nM | < 10 nM | – | –
8 | O=C(N[C@H](c1ccccc1)C1CC1)c1ccc(-c2c(Cl)cccc2-c2nc3ccccc3[nH]2)c(C(=O)O)c1 (single isomer, unassigned) [Example 229] | 10 to 100 nM | 10 to 100 nM | – | –
9 | CCC[C@@H](NC(=O)c1ccc(-c2c(Cl)cccc2-c2nc3cc(OC)ccc3[nH]2)c(C(=O)O)c1)C1CCCCC1 (single isomer, unassigned) [Example 231] | < 10 nM | < 10 nM | – | –
10 | CCC[C@H](NC(=O)c1ccc(-c2c(Cl)cccc2-c2nc3cc(OC)c(F)cc3[nH]2)c(C(=O)O)c1)c1ccc(F)cc1 (single isomer, unassigned) [Example 233] | < 10 nM | < 10 nM | – | –
11 | COc1cc2nc(-c3cccc(Cl)c3-c3ccc(C(=O)N[C@H](c4ccccc4)C4CC4)cc3C(=O)O)[nH]c2cc1F (single isomer, unassigned) [Example 234] | < 10 nM | < 10 nM | – | –
12 | COc1cc2nc(-c3cccc(Cl)c3-c3ccc(C(=O)NC(C4CCCCC4)C4CC4)cc3C(=O)O)[nH]c2cc1F (single isomer, unassigned) [Example 235] | < 10 nM | < 10 nM | – | –
13 | CCC[C@H](NC(=O)c1ccc(-c2c(Cl)cccc2-c2nc3cc(OC)c(F)cc3[nH]2)c(C(=O)O)c1)c1ccc(Cl)cc1 (single isomer, unassigned) [Example 236] | < 10 nM | < 10 nM | – | –
14 | COc1cc2nc(-c3cccc(Cl)c3-c3ccc(C(=O)N[C@H](c4ccc(Cl)cc4)C4CC4)cc3C(=O)O)[nH]c2cc1F (single isomer, unassigned) [Example 237] | < 10 nM | < 10 nM | – | –
15 | CCC[C@H](NC(=O)c1ccc(-c2c(Cl)cccc2-c2nc3cc(OC)c(F)cc3[nH]2)c(C(=O)O)c1)c1ccccc1OC (single isomer, unassigned) [Example 238] | < 10 nM | < 10 nM | – | –
16 | CCC[C@H](NC(=O)c1ccc(-c2c(Cl)cccc2-c2nc3cc(F)c(Cl)cc3[nH]2)c(C(=O)O)c1)c1ccc(Cl)cc1 (single isomer, unassigned) [Example 239] | < 10 nM | < 10 nM | – | –

Row | SMILES | EC50 [1] | EC50 [2] | EC50 (Table 3, HEK293 cells stably expressing human APJ receptor, read-out: APJ cAMP Human EC50) | EC50 [3]
17 | O=C(N[C@H](c1ccc(Cl)cc1)C1CC1)c1ccc(-c2c(Cl)cccc2-c2nc3cc(F)c(Cl)cc3[nH]2)c(C(=O)O)c1 (single isomer, unassigned) [Example 240] | < 10 nM | < 10 nM | – | –
18 | CCC[C@H](NC(=O)c1ccc(-c2c(Cl)cccc2-c2nc3cc(OC)c(F)cc3[nH]2)c(CO)c1)c1ccccc1 (stereo in doubt) [Example 131, (S)-2′-chloro-6′-(6-fluoro-5-methoxy-1H-1,3-benzodiazol-2-yl)-2-(hydroxymethyl)-N-(1-phenylbutyl)-[1,1′-biphenyl]-4-carboxamide] | – | – | 10 to 100 nM | –
19 | CCC[C@@H](NC(=O)c1ccc(-c2cc(Cl)ccc2-c2nc3cc(OC)ccc3[nH]2)c(C(=O)O)c1)c1ccccc1 [Example 1, (R)-5′-Chloro-2′-(5-methoxy-1H-benzo[d]imidazol-2-yl)-4-((1-phenylbutyl)carbamoyl)-[1,1′-biphenyl]-2-carboxylic acid] | < 10 nM | – | – | < 10 nM
20 | CCC[C@@H](NC(=O)c1ccc(-c2cc(Cl)ccc2-c2nc3ccccc3[nH]2)c(C(=O)O)c1)c1ccccc1 [Example 2, (R)-2′-(1H-Benzo[d]imidazol-2-yl)-5′-chloro-4-((1-phenylbutyl)carbamoyl)-[1,1′-biphenyl]-2-carboxylic acid] | < 10 nM | – | – | < 10 nM
21 | CCC[C@@H](NC(=O)c1ccc(-c2cc(Cl)ccc2-c2nc3cc(O)ccc3[nH]2)c(C(=O)O)c1)c1ccccc1 [Example 3, (R)-5′-Chloro-2′-(5-hydroxy-1H-benzo[d]imidazol-2-yl)-4-((1-phenylbutyl)carbamoyl)-[1,1′-biphenyl]-2-carboxylic acid] | < 10 nM | – | – | < 10 nM
22 | CCC[C@@H](NC(=O)c1ccc(-c2cc(Cl)ccc2-c2ncc(-c3ccccc3)[nH]2)c(C(=O)O)c1)c1ccccc1 [Example 4, (R)-5′-Chloro-2′-(4-phenyl-1H-imidazol-2-yl)-4-((1-phenylbutyl)carbamoyl)-[1,1′-biphenyl]-2-carboxylic acid] | < 10 nM | – | – | < 10 nM
23 | O=C(N[C@H](CN1CCOCC1)c1ccccc1)c1ccc(-c2cc(Cl)ccc2-c2nc3ccccc3[nH]2)c(C(=O)O)c1 [Example 5, (S)-2′-(1H-benzo[d]imidazol-2-yl)-5′-chloro-4-((2-morpholino-1-phenylethyl)carbamoyl)-[1,1′-biphenyl]-2-carboxylic acid] | 10 to 100 nM | – | – | 10 to 100 nM
24 | CCC[C@@H](NC(=O)c1ccc(-c2cc(Cl)ccc2-c2nc3ccccc3[nH]2)c(C(=O)NC#N)c1)c1ccccc1 [Example 6, (R)-2′-(1H-benzo[d]imidazol-2-yl)-5′-chloro-N2-cyano-N4-(1-phenylbutyl)-[1,1′-biphenyl]-2,4-dicarboxamide] | 101 to 500 nM | – | – | 101 to 500 nM
25 | CCC[C@@H](NC(=O)c1ccc(-c2cc(Cl)ccc2-c2nc3ccccc3[nH]2)c(CO)c1)c1ccccc1 [Example 7, (R)-2′-(1H-benzo[d]imidazol-2-yl)-5′-chloro-2-(hydroxymethyl)-N-(1-phenylbutyl)-[1,1′-biphenyl]-4-carboxamide] | 10 to 100 nM | – | – | 10 to 100 nM
26 | CCC[C@@H](NC(=O)c1ccc(-c2cc(Cl)ccc2-c2nc3cc(OC)ccc3[nH]2)c(-c2nc(=O)o[nH]2)c1)c1ccccc1 [Example 8, (R)-5′-chloro-2′-(5-methoxy-1H-benzo[d]imidazol-2-yl)-2-(5-oxo-2,5-dihydro-1,2,4-oxadiazol-3-yl)-N-(1-phenylbutyl)-[1,1′-biphenyl]-4-carboxamide] | 10 to 100 nM | – | – | 10 to 100 nM
27 | CCC[C@@H](NC(=O)c1ccc(-c2cc(Cl)ccc2-c2nc3ccccc3[nH]2)c(-c2n[nH]c(=O)o2)c1)c1ccccc1 [Example 9] | 10 to 100 nM | – | – | 10 to 100 nM
28 | CCC[C@@H](NC(=O)c1ccc(-c2cc(Cl)ccc2-c2nc3cc(OC)ccc3[nH]2)c(-c2nc(=S)o[nH]2)c1)c1ccccc1 [Example 10, (R)-5′-chloro-2′-(5-methoxy-1H-benzo[d]imidazol-2-yl)-N-(1-phenylbutyl)-2-(5-thioxo-2,5-dihydro-1,2,4-oxadiazol-3-yl)-[1,1′-biphenyl]-4-carboxamide] | 101 to 500 nM | – | – | 101 to 500 nM
29 | CCC[C@@H](NC(=O)c1cc(C(=O)O)c(-c2cc(Cl)ccc2-c2nc3ccccc3[nH]2)cc1C)c1ccccc1 [Example 11, (R)-2′-(1H-benzo[d]imidazol-2-yl)-5′-chloro-5-methyl-4-((1-phenylbutyl)carbamoyl)-[1,1′-biphenyl]-2-carboxylic acid] | < 10 nM | – | – | < 10 nM
30 | COC[C@@H](NC(=O)c1ccc(-c2cc(Cl)ccc2-c2nc3cc(OC)ccc3[nH]2)c(C(=O)O)c1)c1ccccc1 [Example 12, 5′-chloro-4-{[(1S)-2-methoxy-1-phenylethyl]carbamoyl}-2′-(5-methoxy-1H-1,3-benzodiazol-2-yl)-[1,1′ biphenyl]-2-carboxylic acid] | < 10 nM | – | – | < 10 nM
31 | CCC[C@@H](NC(=O)c1ccc(-c2cc(Cl)ccc2-c2nc3cc(Br)ccc3[nH]2)c(C(=O)O)c1)c1ccccc1 [Example 13, 2′-(5-bromo-1H-1,3-benzodiazol-2-yl)-5′-chloro-4-{[(1R)-1-phenylbutyl]carbamoyl}-[1,1′-biphenyl]-2-carboxylic acid] | < 10 nM | – | – | < 10 nM
